We go through 15 compounds from patent US10525041B2, “Fluoroalkyl-substituted aryltriazole derivatives and uses thereof” (BAYER PHARMA AKTIENGESELLSCHAFT, priority 2016, dated 2020).

One test deals with T1, human V1a receptor (Homo sapiens, UniProt P37288).
T1 construct: expressed in transfected cells; host or cells: CHO K1 (ATCC), also stably transfected with a modified aequorin
Description: Cellular in vitro assay for vasopressin receptor activity, V1a cell line (aequorin luminescence). The test is classed as cell-based. Particulars: for IC50: CHO cell line transfected with human V1a receptor, agonist [Arg8]-vasopressin at EC50 concentration, read-out: IC50hV1a; for ratio IC50 hV2/hV1a: ratio of the IC50 on human V2 to the IC50 on human V1a. As to the method:
(§1) B-1. Cellular In Vitro Assay for Determining Vasopressin Receptor Activity
(§2) The identification of agonists and antagonists of the V1a and V2 vasopressin receptors from humans, rats and dogs as well as the quantification of the activity of the compounds of the invention is carried out using recombinant cell lines. These cell lines originally derive from a hamster's ovary epithelial cell (Chinese Hamster Ovary, CHO K1, ATCC: American Type Culture Collection, Manassas, Va. 20108, USA). The test cell lines constitutively express the human, rat or dog V1a or V2 receptors. In case of the Gαq-coupled V1a receptors, cells are also stably transfected with a modified form of the calcium-sensitive photoproteins aequorin (human and rat V1a) or obelin (dog V1a), which, after reconstitution with the cofactor coelenterazine, emit light when there are increases in free calcium concentrations [Rizzuto R, Simpson A W, Brini M, Pozzan T, Nature 358, 325-327 (1992); Illarionov B A, Bondar V S, Illarionova V A, Vysotski E S, Gene 153 (2), 273-274 (1995)]. The resulting vasopressin receptor cells react to stimulation of the recombinantly expressed V1a receptors by intracellular release of calcium ions, which can be quantified by the resulting photoprotein luminescence. The Gs-coupled V2 receptors are stably transfected into cell lines expressing the gene for firefly luciferase under control of a CRE-responsible promoter. Activation of V2 receptors induces the activation of the CRE-responsive promoter via cAMP increase, thereby inducing the expression of firefly luciferase. The light emitted by photoproteins of V1a cell lines as well as the light emitted by firefly luciferase of V2 cell lines corresponds to the activation or inhibition of the respective vasopressin receptor. The bioluminescence of the cell lines is detected using a suitable luminometer [Milligan G, Marshall F, Rees S, Trends in Pharmacological Sciences 17, 235-237 (1996)].
Vasopressin V1a Receptor Cell Lines:
On the day before the assay, the cells are plated out in culture medium (DMEM/F12, 2% FCS, 2 mM glutamine, 10 mM HEPES, 5 μg/ml coelenterazine) in 384-well microtiter plates and kept in a cell incubator (96% humidity, 5% v/v CO2, 37° C.). On the day of the assay, test compounds in various concentrations are placed for 10 minutes in the wells of the microtiter plate before the agonist [Arg^8]-vasopressin at EC50 concentration is added. The resulting light signal is measured immediately in a luminometer.
(§3) Table 1A below lists individual IC50 values for the compounds of the invention (including racemic mixtures as well as separated enantiomers) that were obtained from cell lines transfected with the human V1a or V2 receptor: […]

In another test the target is T2, human V2 receptor (Homo sapiens, UniProt P30518).
T2 construct: expressed in transfected cells; host or cells: CHO K1 (ATCC) line expressing firefly luciferase under a CRE-responsive promoter
Description: Cellular in vitro assay for vasopressin receptor activity, V2 cell line (CRE-luciferase). The test is classed as cell-based. Particulars: CHO cell line transfected with human V2 receptor; agonist [Arg8]-vasopressin at EC50 concentration, 3 hours; read-out: IC50hV2. The procedure:
as §1, §2
Vasopressin V2 Receptor Cell Lines:
On the day before the assay, the cells are plated out in culture medium (DMEM/F12, 2% FCS, 2 mM glutamine, 10 mM HEPES) in 384-well microtiter plates and kept in a cell incubator (96% humidity, 5% v/v CO2, 37° C.). On the day of the assay, test compounds in various concentrations and the agonist [Arg^8]-vasopressin at EC50 concentration are added together to the wells, and plates are incubated for 3 hours in a cell incubator. Upon addition of the cell lysis reagent Triton™ and the substrate luciferin, luminescence of firefly luciferase is measured in a luminometer.
as §3

T1 sequence (P37288 whole entry): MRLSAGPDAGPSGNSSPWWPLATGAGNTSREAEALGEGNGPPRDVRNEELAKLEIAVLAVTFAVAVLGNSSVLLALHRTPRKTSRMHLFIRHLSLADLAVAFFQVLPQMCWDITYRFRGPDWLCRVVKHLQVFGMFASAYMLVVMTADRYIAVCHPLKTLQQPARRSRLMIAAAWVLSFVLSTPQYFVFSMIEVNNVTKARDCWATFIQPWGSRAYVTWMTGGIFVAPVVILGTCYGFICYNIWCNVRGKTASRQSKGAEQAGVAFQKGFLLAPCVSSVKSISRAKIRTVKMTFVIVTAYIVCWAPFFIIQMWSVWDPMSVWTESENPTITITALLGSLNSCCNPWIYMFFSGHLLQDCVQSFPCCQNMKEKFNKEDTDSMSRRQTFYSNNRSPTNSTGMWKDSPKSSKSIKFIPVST
T2 sequence (P30518 whole entry): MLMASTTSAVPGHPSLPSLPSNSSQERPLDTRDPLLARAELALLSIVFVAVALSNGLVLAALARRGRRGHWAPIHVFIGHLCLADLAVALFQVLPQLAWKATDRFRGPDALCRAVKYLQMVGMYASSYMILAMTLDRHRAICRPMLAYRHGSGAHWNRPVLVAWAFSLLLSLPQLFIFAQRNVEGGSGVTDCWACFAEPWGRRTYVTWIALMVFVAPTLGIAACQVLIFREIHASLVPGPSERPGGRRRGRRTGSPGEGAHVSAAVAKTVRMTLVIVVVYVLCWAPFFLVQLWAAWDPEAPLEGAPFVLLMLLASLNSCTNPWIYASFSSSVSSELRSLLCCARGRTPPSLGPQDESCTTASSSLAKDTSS

Take `CC(F)c1nc(Cn2nc(-c3ccc(Cl)cc3)n(C[C@H](O)C(F)(F)F)c2=O)nn1-c1ccccc1OC(F)F` (mixture of isomers) [Example 31, 5-(4-Chlorophenyl)-2-({1-[2-(difluoromethoxy)phenyl]-5-[1-fluoroethyl]-1H-1,2,4-triazol-3-yl}methyl)-4-[(2S)-3,3,3-trifluoro-2-hydroxypropyl]-2,4-dihydro-3H-1,2,4-triazol-3-one]: at human V1a receptor, the IC50 turned out to be 1.75 nM and the “ratio IC50 hV2/hV1a” value was determined as 2.6. For the same compound, the IC50 on human V2 receptor worked out at 4.58 nM.

As for `Cc1ccccc1-n1nc(Cn2nc(-c3ccc(Cl)cc3)n(C[C@H](O)C(F)(F)F)c2=O)nc1C(C)F` (mixture of isomers) [Example 34, 5-(4-Chlorophenyl)-2-({5-[1-fluoroethyl]-1-(2-methylphenyl)-1H-1,2,4-triazol-3-yl}methyl)-4-[(2S)-3,3,3-trifluoro-2-hydroxypropyl]-2,4-dihydro-3H-1,2,4-triazol-3-one], the values for the IC50 on human V1a receptor and on human V2 receptor were 0.71 nM and 0.84 nM, respectively. Moreover, on human V1a receptor, the “ratio IC50 hV2/hV1a” value is reported as 1.2.

`CC(F)c1nc(Cn2nc(-c3ccc(Cl)cc3)n(C[C@H](O)C(F)(F)F)c2=O)nn1-c1ccccc1[N+](=O)[O-]` (mixture of isomers) [Example 37, 5-(4-Chlorophenyl)-2-({5-[1-fluoroethyl]-1-(2-nitrophenyl)-1H-1,2,4-triazol-3-yl}methyl)-4-[(2S)-3,3,3-trifluoro-2-hydroxypropyl]-2,4-dihydro-3H-1,2,4-triazol-3-one]: on human V1a receptor, the IC50 was determined as 3.35 nM and the “ratio IC50 hV2/hV1a” value came to 3.0. At human V2 receptor, the IC50 came out at 10 nM.

Take `CC(F)c1nc(Cn2nc(-c3ccc(Cl)cc3)n(C[C@H](O)C(F)(F)F)c2=O)nn1-c1ccccc1C#N` (mixture of isomers) [Example 38, 2-{3-({3-(4-Chlorophenyl)-5-oxo-4-[(2S)-3,3,3-trifluoro-2-hydroxypropyl]-4,5-dihydro-1H-1,2,4-triazol-1-yl}methyl)-5-[1-fluoroethyl]-1H-1,2,4-triazol-1-yl}benzonitrile]: at human V1a receptor, the IC50 turned out to be 82 nM and the “ratio IC50 hV2/hV1a” value turned out to be 2.0. In addition, on human V2 receptor, the IC50 amounted to 165 nM.

Regarding `CC(F)c1nc(Cn2nc(-c3ccc(Cl)cc3)n(C[C@H](O)C(F)(F)F)c2=O)nn1-c1ccccc1S(N)(=O)=O` (mixture of isomers) [Example 41, 2-{3-({3-(4-Chlorophenyl)-5-oxo-4-[(2S)-3,3,3-trifluoro-2-hydroxypropyl]-4,5-dihydro-1H-1,2,4-triazol-1-yl}methyl)-5-[1-fluoroethyl]-1H-1,2,4-triazol-1-yl}benzenesulfonamide], the IC50 was found to be 84.8 nM on human V1a receptor and 292 nM at human V2 receptor. For the same compound, the “ratio IC50 hV2/hV1a” value on human V1a receptor came to 3.5.

On to `CCOc1ccccc1-n1nc(Cn2nc(-c3ccc(Cl)cc3)n(C[C@H](O)C(F)(F)F)c2=O)nc1C(C)F` (mixture of isomers) [Example 42, 5-(4-Chlorophenyl)-2-({1-(2-ethoxyphenyl)-5-[1-fluoroethyl]-1H-1,2,4-triazol-3-yl}methyl)-4-[(2S)-3,3,3-trifluoro-2-hydroxypropyl]-2,4-dihydro-3H-1,2,4-triazol-3-one], for which, on human V1a receptor, the IC50 came out at 1.9 nM and the “ratio IC50 hV2/hV1a” value is 2.6. At human V2 receptor, the IC50 was 4.95 nM.

As for `CC(F)c1nc(Cn2nc(-c3ccc(Cl)cc3)n(C[C@H](O)C(F)(F)F)c2=O)nn1-c1c(Cl)cccc1Cl` (mixture of isomers) [Example 43, 5-(4-Chlorophenyl)-2-({1-(2,6-dichlorophenyl)-5-[1-fluoroethyl]-1H-1,2,4-triazol-3-yl}methyl)-4-[(2S)-3,3,3-trifluoro-2-hydroxypropyl]-2,4-dihydro-3H-1,2,4-triazol-3-one], the results for the IC50 on human V1a receptor and at human V2 receptor were 2.05 nM and 3.1 nM, respectively. Further, the “ratio IC50 hV2/hV1a” value at human V1a receptor came out at 1.5.

Regarding `CC(F)c1nc(Cn2nc(-c3ccc(Cl)cc3)n(C[C@H](O)C(F)(F)F)c2=O)nn1-c1c(F)cccc1Cl` (mixture of isomers) [Example 44, 2-({1-(2-chloro-6-fluorophenyl)-5-[1-fluoroethyl]-1H-1,2,4-triazol-3-yl}methyl)-5-(4-Chlorophenyl)-4-[(2S)-3,3,3-trifluoro-2-hydroxypropyl]-2,4-dihydro-3H-1,2,4-triazol-3-one], on human V1a receptor, the IC50 turned out to be 1.04 nM and the “ratio IC50 hV2/hV1a” value is 2.8. In addition, at human V2 receptor, the IC50 was found to be 2.93 nM.

For the compound `CC(F)c1nc(Cn2nc(-c3ccc(Cl)cc3)n(C[C@H](O)C(F)(F)F)c2=O)nn1-c1c(F)cccc1F` (mixture of isomers) [Example 45, 5-(4-Chlorophenyl)-2-({1-(2,6-difluorophenyl)-5-[1-fluoroethyl]-1H-1,2,4-triazol-3-yl}methyl)-4-[(2S)-3,3,3-trifluoro-2-hydroxypropyl]-2,4-dihydro-3H-1,2,4-triazol-3-one], on human V1a receptor, the IC50 was 2.2 nM and the “ratio IC50 hV2/hV1a” value is on record as 1.3. At human V2 receptor, the IC50 came to 2.97 nM.

Take `Cc1cccc(C)c1-n1nc(Cn2nc(-c3ccc(Cl)cc3)n(C[C@H](O)C(F)(F)F)c2=O)nc1C(C)F` (mixture of isomers) [Example 46, 5-(4-Chlorophenyl)-2-({1-(2,6-dimethylphenyl)-5-[1-fluoroethyl]-1H-1,2,4-triazol-3-yl}methyl)-4-[(2S)-3,3,3-trifluoro-2-hydroxypropyl]-2,4-dihydro-3H-1,2,4-triazol-3-one]: on human V1a receptor, the IC50 came to 3.2 nM and the “ratio IC50 hV2/hV1a” value was 0.5. Besides, the IC50 on human V2 receptor is 1.74 nM.

In the case of `CC(C)c1ccccc1-n1nc(Cn2nc(-c3ccc(Cl)cc3)n(C[C@H](O)C(F)(F)F)c2=O)nc1C(C)F` (mixture of isomers) [Example 47, 5-(4-Chlorophenyl)-2-({5-[1-fluoroethyl]-1-[2-(propan-2-yl)phenyl]-1H-1,2,4-triazol-3-yl}methyl)-4-[(2S)-3,3,3-trifluoro-2-hydroxypropyl]-2,4-dihydro-3H-1,2,4-triazol-3-one], at human V1a receptor, the IC50 is 30 nM and the “ratio IC50 hV2/hV1a” value is 1.2. In addition, the IC50 at human V2 receptor was 35 nM.

Regarding `CCc1cccc(C)c1-n1nc(Cn2nc(-c3ccc(Cl)cc3)n(C[C@H](O)C(F)(F)F)c2=O)nc1C(C)F` (mixture of isomers) [Example 48, 5-(4-Chlorophenyl)-2-({1-(2-ethyl-6-methylphenyl)-5-[1-fluoroethyl]-1H-1,2,4-triazol-3-yl}methyl)-4-[(2S)-3,3,3-trifluoro-2-hydroxypropyl]-2,4-dihydro-3H-1,2,4-triazol-3-one], at human V1a receptor, the IC50 worked out at 30.5 nM and the “ratio IC50 hV2/hV1a” value stood at 0.2. Further, on human V2 receptor, the IC50 turned out to be 4.9 nM.

Consider `CSc1ccccc1-n1nc(Cn2nc(-c3ccc(Cl)cc3)n(C[C@H](O)C(F)(F)F)c2=O)nc1C(C)F` (mixture of isomers) [Example 49, 5-(4-Chlorophenyl)-2-({5-[1-fluoroethyl]-1-[2-(methylsulfanyl)phenyl]-1H-1,2,4-triazol-3-yl}methyl)-4-[(2S)-3,3,3-trifluoro-2-hydroxypropyl]-2,4-dihydro-3H-1,2,4-triazol-3-one], for which the IC50 at human V1a receptor amounted to 0.85 nM; at human V2 receptor it was 0.45 nM. In addition, the “ratio IC50 hV2/hV1a” value on human V1a receptor turned out to be 0.5.

For `CC(F)c1nc(Cn2nc(-c3ccc(Cl)cc3)n(C[C@H](O)C(F)(F)F)c2=O)nn1-c1ccccc1Cl` (single isomer, unassigned) [Example 2], the IC50 amounted to 0.36 nM at human V1a receptor and 1.34 nM at human V2 receptor. Besides, the “ratio IC50 hV2/hV1a” value at human V1a receptor is recorded as 3.8.

As for `CC(F)c1nc(Cn2nc(-c3ccc(Cl)cc3)n(C[C@H](O)C(F)(F)F)c2=O)nn1-c1ccccc1Cl` (single isomer, unassigned) [Example 3], at human V1a receptor, the IC50 was 0.9 nM and the “ratio IC50 hV2/hV1a” value stood at 1.0. At human V2 receptor, the IC50 was 0.93 nM.
